Source: the NIST ThermoML archive (doi:10.1021/je700032n)
Where “and” joins values, the source holds several entries; their conditions need not be identical. Equal entries are not always repeated. ± gives the expanded uncertainty stated by the source.

Conditions: Liquid; for viscosity: Falling or rolling sphere viscometry; for mass density: 101.33 kPa, Vibrating tube method

CCCCCCn1cc[n+](C)c1.F[P-](F)(F)(F)(F)F [1-hexyl-3-methylimidazolium hexafluorophosphate]
Conditions | viscosity
273.15 K, 100 kPa | 3924 ± 590 mPa·s
278.15 K, 100 kPa | 2428 ± 330 mPa·s
283.15 K, 100 kPa | 1566 ± 190 mPa·s and 1565 ± 190 mPa·s
288.15 K, 100 kPa | 1036 ± 110 mPa·s and 1035 ± 110 mPa·s
293.15 K, 100 kPa | 705.1 ± 66 mPa·s
298.15 K, 100 kPa | 496.4 ± 41 mPa·s and 496.5 ± 41 mPa·s
298.15 K, 22000 kPa | 685.3 ± 63 mPa·s
298.15 K, 42100 kPa | 917.7 ± 93 mPa·s
298.15 K, 60300 kPa | 1190 ± 130 mPa·s
298.15 K, 80300 kPa | 1572 ± 190 mPa·s
298.15 K, 100100 kPa | 2064 ± 260 mPa·s
303.15 K, 100 kPa | 356.9 ± 26 mPa·s and 356.8 ± 26 mPa·s
313.15 K, 100 kPa | 197 ± 11 mPa·s
313.15 K, 400 kPa | 197.3 ± 11 mPa·s
313.15 K, 25700 kPa | 276.7 ± 18 mPa·s
313.15 K, 50800 kPa | 381.8 ± 28 mPa·s
313.15 K, 76000 kPa | 521.9 ± 44 mPa·s
313.15 K, 101400 kPa | 708.3 ± 67 mPa·s
313.15 K, 125200 kPa | 939.3 ± 96 mPa·s
313.15 K, 150000 kPa | 1254 ± 140 mPa·s
323.15 K, 100 kPa | 119.2 ± 5.1 mPa·s and 117 ± 5 mPa·s
323.15 K, 7600 kPa | 118.3 ± 5 mPa·s
323.15 K, 25800 kPa | 161.7 ± 8.1 mPa·s
323.15 K, 50600 kPa | 217.1 ± 12 mPa·s
323.15 K, 76000 kPa | 290.7 ± 19 mPa·s
323.15 K, 100900 kPa | 384 ± 29 mPa·s
323.15 K, 125800 kPa | 503.9 ± 42 mPa·s
323.15 K, 150100 kPa | 655 ± 59 mPa·s
323.15 K, 174800 kPa | 850.1 ± 84 mPa·s
333.15 K, 100 kPa | 75.2 ± 2.7 mPa·s and 74.4 ± 2.6 mPa·s
333.15 K, 40500 kPa | 118.5 ± 5 mPa·s
333.15 K, 80800 kPa | 182.8 ± 9.5 mPa·s
333.15 K, 120800 kPa | 275.7 ± 18 mPa·s
333.15 K, 160600 kPa | 408.7 ± 31 mPa·s
333.15 K, 200100 kPa | 598.9 ± 52 mPa·s
343.15 K, 100 kPa | 49.7 ± 1.7 mPa·s
348.15 K, 100 kPa | 41.3 ± 1.4 mPa·s
348.15 K, 800 kPa | 41.9 ± 1.4 mPa·s
348.15 K, 40700 kPa | 63.7 ± 2.2 mPa·s
348.15 K, 80800 kPa | 94.2 ± 3.7 mPa·s
348.15 K, 120700 kPa | 136.4 ± 6.3 mPa·s
348.15 K, 160600 kPa | 194.8 ± 11 mPa·s
348.15 K, 200200 kPa | 274.5 ± 18 mPa·s
348.15 K, 238500 kPa | 378 ± 28 mPa·s
353.15 K, 100 kPa | 34.8 ± 1.2 mPa·s

Conditions | mass density
273.15 K | 1313.39 ± 9.4 kg/m3
278.15 K | 1309.33 ± 9.3 kg/m3
283.15 K | 1305.29 ± 9.3 kg/m3
288.15 K | 1301.26 ± 9.2 kg/m3
293.15 K | 1297.24 ± 9.2 kg/m3
298.15 K | 1293.22 ± 9.1 kg/m3
303.15 K | 1289.21 ± 9.1 kg/m3
313.15 K | 1281.17 ± 8.9 kg/m3
323.15 K | 1273.44 ± 8.8 kg/m3
333.15 K | 1265.69 ± 8.7 kg/m3 and 1265.68 ± 8.7 kg/m3
343.15 K | 1257.96 ± 8.6 kg/m3
353.15 K | 1250.28 ± 8.5 kg/m3
363.15 K | 1242.64 ± 8.4 kg/m3

CCCC[n+]1ccn(C)c1.O=S(=O)([N-]S(=O)(=O)C(F)(F)F)C(F)(F)F
Conditions | viscosity
273.15 K, 100 kPa | 191.3 ± 10 mPa·s and 191.6 ± 10 mPa·s
278.15 K, 100 kPa | 140.4 ± 6.6 mPa·s
283.15 K, 100 kPa | 106.1 ± 4.4 mPa·s
283.15 K, 24300 kPa | 146.8 ± 6.9 mPa·s
283.15 K, 49900 kPa | 205.8 ± 11 mPa·s
283.15 K, 74100 kPa | 280.3 ± 18 mPa·s
288.15 K, 100 kPa | 81.6 ± 3 mPa·s
293.15 K, 100 kPa | 63.8 ± 2.2 mPa·s and 63.9 ± 2.2 mPa·s
298.15 K, 100 kPa | 50.9 ± 1.7 mPa·s and 51 ± 1.7 mPa·s and 51.1 ± 1.7 mPa·s
298.15 K, 24300 kPa | 68.1 ± 2.3 mPa·s
298.15 K, 49300 kPa | 90.9 ± 3.4 mPa·s
298.15 K, 76900 kPa | 124 ± 5.4 mPa·s
298.15 K, 101500 kPa | 161.5 ± 7.8 mPa·s
298.15 K, 126400 kPa | 210.3 ± 12 mPa·s
298.15 K, 150200 kPa | 269.4 ± 17 mPa·s
303.15 K, 100 kPa | 41.5 ± 1.4 mPa·s
313.15 K, 100 kPa | 28.5 ± 1 mPa·s
323.15 K, 100 kPa | 20.5 ± 0.7 mPa·s and 20.6 ± 0.7 mPa·s and 20.7 ± 0.7 mPa·s
323.15 K, 26400 kPa | 26.9 ± 0.9 mPa·s
323.15 K, 35600 kPa | 29.2 ± 1 mPa·s
323.15 K, 52000 kPa | 34.6 ± 1.2 mPa·s
323.15 K, 53900 kPa | 34.8 ± 1.2 mPa·s
323.15 K, 69800 kPa | 40.2 ± 1.4 mPa·s
323.15 K, 75000 kPa | 41.6 ± 1.5 mPa·s
323.15 K, 101600 kPa | 53.9 ± 2.3 mPa·s
323.15 K, 103600 kPa | 54.4 ± 2.3 mPa·s
323.15 K, 123600 kPa | 64.3 ± 2.2 mPa·s
323.15 K, 152800 kPa | 83.6 ± 3.1 mPa·s
323.15 K, 200300 kPa | 123.2 ± 5.3 mPa·s
323.15 K, 226000 kPa | 151.2 ± 7.1 mPa·s
323.15 K, 249600 kPa | 183.2 ± 9.4 mPa·s
333.15 K, 100 kPa | 15.4 ± 0.5 mPa·s and 15.5 ± 0.5 mPa·s
343.15 K, 100 kPa | 12 ± 0.4 mPa·s
348.15 K, 100 kPa | 10.6 ± 0.4 mPa·s and 10.7 ± 0.4 mPa·s
348.15 K, 800 kPa | 10.7 ± 0.4 mPa·s
348.15 K, 25700 kPa | 13.4 ± 0.5 mPa·s
348.15 K, 50700 kPa | 16.4 ± 0.6 mPa·s
348.15 K, 75600 kPa | 19.9 ± 0.7 mPa·s
348.15 K, 100900 kPa | 24.2 ± 0.8 mPa·s
348.15 K, 125500 kPa | 29 ± 1 mPa·s
348.15 K, 150600 kPa | 34.6 ± 1.2 mPa·s
348.15 K, 175400 kPa | 40.9 ± 1.4 mPa·s
348.15 K, 175600 kPa | 41 ± 1.4 mPa·s
348.15 K, 200600 kPa | 48.6 ± 1.7 mPa·s
348.15 K, 225400 kPa | 57.4 ± 2 mPa·s
348.15 K, 249700 kPa | 67.3 ± 2.4 mPa·s
348.15 K, 274500 kPa | 79 ± 2.9 mPa·s
348.15 K, 298900 kPa | 92.6 ± 3.6 mPa·s
353.15 K, 100 kPa | 9.53 ± 0.32 mPa·s

Conditions | mass density
273.15 K | 1460.67 ± 12 kg/m3
278.15 K | 1455.84 ± 12 kg/m3
283.15 K | 1451.04 ± 12 kg/m3
288.15 K | 1446.23 ± 11 kg/m3
293.15 K | 1441.43 ± 11 kg/m3 and 1441.42 ± 11 kg/m3
298.15 K | 1436.64 ± 11 kg/m3 and 1436.6 ± 11 kg/m3
303.15 K | 1431.86 ± 11 kg/m3
313.15 K | 1422.34 ± 11 kg/m3
323.15 K | 1412.87 ± 11 kg/m3 and 1412.85 ± 11 kg/m3
333.15 K | 1403.48 ± 11 kg/m3
343.15 K | 1394.15 ± 11 kg/m3
353.15 K | 1384.88 ± 10 kg/m3
363.15 K | 1375.67 ± 10 kg/m3
